Several values for one entry are separate records, joined by “and”; a condition that tells them apart may be missing. Equal entries are not always repeated. Entries after “also recorded” stand apart in the source; their conditions may differ.
How the values were obtained:
[1] = system: PC9/GR cells; assay: BODIPY 493/503 lipid droplet staining; format: cell-based, human
From the text: To investigate the relationship between intracellular cholesterol levels and gefitinib resistance, we measured cholesterol content in PC9 (gefitinib-sensitive) and PC9/GR (gefitinib-resistant) cells. […] To further elucidate the role of TM7SF2 in mediating the cholesterol-lowering effects of compound 4l in PC9/GR cells, we generated a TM7SF2-overexpressing PC9/GR cell line via plasmid transfection.

[2] = system: BEAS-2B cells; assay: MTT cytotoxicity assay, normal bronchial epithelial BEAS-2B cells; format: cell-based, human
Procedure: The cytotoxicity of compound 4l on normal human bronchial epithelial cells (BEAS-2B) was also evaluated using the MTT assay. Cells treated with 0.1% DMSO served as the vehicle control.
The human normal lung epithelial cell line BEAS-2B, non-small cell lung carcinoma (NSCLC) cell line PC9, and gefitinib-resistant PC9/GR cell line were purchased from Procell Life Science & Technology Co., Ltd. (Wuhan, China). All cell lines were maintained in RPMI-1640 medium (BI, Beit Haemek, Mateh Asher, Israel) supplemented with 10% fetal bovine serum (FBS, Gibco, Thermo Fisher Scientific, Waltham, MA, USA) and 1% penicillin–streptomycin–amphotericin B sterile solution (Solarbio, Beijing, China). Cells were cultured at 37 °C in a humidified incubator with 5% CO2. For subculturing, cells were harvested using trypsin-EDTA solution upon reaching 70–80% confluence and resuspended at appropriate densities for subsequent experiments.
MTT: Cells (5 × 10^4/mL) were treated with 4l (25–100 μM, 24–48 h), incubated with MTT (10 μL/well, 4–6 h), and dissolved in DMSO. Absorbance (490 nm) was measured to assess viability.

[3] = target: p38α (Homo sapiens, UniProt Q16539); assay: ADP-Glo Kinase Assay, p38α MAP kinase inhibition; format: biochemical; settings: read-out: p38α MAP kinase inhibitory activity IC50
Procedure: The capacity of brominated tyrosine derivatives to inhibit p38α activity was evaluated using the ADP-Glo Kinase Assay.

[4] = system: TM7SF2; assay: Western blot / immunofluorescence of TM7SF2 protein in PC9/GR cells; format: cell-based, human; settings: 4l-treated vs untreated PC9/GR, immunoblotting
From the text: By comparing PC9/GR treated with the small molecule compound 4l against untreated PC9/GR controls, we identified significant differentially expressed genes (DEGs). […] The results of the GO enrichment analysis further emphasized the significant impact of the small molecule compound 4l on steroid biosynthesis and metabolism in lung cancer cells, with the top five pathways being steroid biosynthesis, steroid metabolism, the metabolism of hydroxylated compounds, steroid biosynthesis, and cholesterol biosynthesis (Figure 4C). […] TM7SF2 has been identified as a critical regulator of cholesterol biosynthesis and steroid metabolism in lung cancer cells, a finding central to overcoming chemoresistance in NSCLC [28]. Thus, we selected TM7SF2 as the target gene for further experiments and investigated the protein expression of TM7SF2 in 4l-treated PC9/GR cells using immunoblotting.
Western blot: Proteins extracted with RIPA buffer were quantified (BCA), separated by SDS-PAGE, transferred to PVDF membranes, and probed with antibodies. Signals were detected by ECL.

[5] = system: PC9/GR cells; assay: Clonogenic survival / colony formation assay; format: cell-based, human; settings: 24 h pretreatment, 14 days culture, p < 0.05 vs untreated controls
Procedure: (§1) To evaluate the tumor-selective activity of compounds 4l and 4m, dose–response studies were performed on wild-type PC9 and gefitinib-resistant PC9/GR cell lines. […] Subtoxic concentrations of 25, 50, and 75 μM were employed to ensure specificity for drug-resistant phenotypes while preserving normal cell viability. […] To assess long-term proliferative potential, clonogenic survival assays were performed. Cells pretreated with 4l (24 h) were trypsinized to generate single-cell suspensions, plated at 300 cells/well, and cultured for 14 days. […] Cell migration ability was evaluated by the scratch healing assay. […] To evaluate the pro-apoptotic efficacy of 4l, we employed a dual-staining approach using Annexin V-FITC and propidium iodide (PI) for quadrant-specific quantification of programmed cell death. Annexin V binds externalized phosphatidylserine (PS), a hallmark of early apoptosis, while PI permeabilization discriminates late-stage apoptotic or necrotic cells.
Clonogenic Survival: Single-cell suspensions (300 cells/well) were cultured for 14 days. Colonies (>50 cells) were fixed (4% PFA), stained with crystal violet, and counted.
PC9/GR cells were seeded into 6-well plates at a density of […] and cultured in a 37 °C incubator for 2 weeks. The culture medium was then discarded, and the cells were washed with PBS. […] Finally, the number of cell colonies was counted.

[6] = system: PC9/GR cells; assay: Scratch (wound) healing assay; format: cell-based, human; settings: for relative wound healing area: vehicle control 44.08%
Procedure: PC9/GR cells were grown to 90% confluence. A uniform wound was created in the monolayer using a sterile 200 µL pipette tip. The initial wound area was imaged immediately (0 h) using phase-contrast microscopy. After 24 h of incubation in complete medium, the wound area was re-imaged. The relative wound closure rate was calculated from the change in wound area using ImageJ software (version 1.53).

[7] = system: PC9 cells; assay: Intracellular total cholesterol quantification, PC9 cells; format: cell-based, human; settings: PC9, 24 h treatment
Procedure: Following sample collection, intracellular total cholesterol levels were quantified using a commercial Total Cholesterol (T-CHO) assay kit (Nanjing Jiancheng Bioengineering Institute, Nanjing, China) according to the manufacturer’s protocol. Cells were treated as indicated 24 h prior to analysis. Total cellular protein was extracted, and protein concentration was determined using a bicinchoninic acid (BCA) assay. Protein aliquots were loaded in duplicate into a 96-well microplate. Reagents were added sequentially as specified in the kit instructions. After incubation at 37 °C for 10 min, absorbance was measured at 510 nm using a microplate reader. Total cholesterol content was normalized to cellular protein concentration and expressed as μg cholesterol per mg protein.

[8] = system: PC9/GR cells; assay: Annexin V-FITC/PI apoptosis, flow cytometry; format: cell-based, human; settings: 24 h, vehicle control 5.2%
Procedure: as §1
Annexin V/PI Apoptosis: 4l treated cells were stained with Annexin VFITC/PI (15 min, dark), analyzed by flow cytometry (Q2/Q3: late/early apoptosis).

[9] = fourth column = 75 μM by match with b18
[10] = second column = 25 μM by match with b18
[11] = third column = 50 μM by match with b18

Chain of p38α (Q16539 whole entry): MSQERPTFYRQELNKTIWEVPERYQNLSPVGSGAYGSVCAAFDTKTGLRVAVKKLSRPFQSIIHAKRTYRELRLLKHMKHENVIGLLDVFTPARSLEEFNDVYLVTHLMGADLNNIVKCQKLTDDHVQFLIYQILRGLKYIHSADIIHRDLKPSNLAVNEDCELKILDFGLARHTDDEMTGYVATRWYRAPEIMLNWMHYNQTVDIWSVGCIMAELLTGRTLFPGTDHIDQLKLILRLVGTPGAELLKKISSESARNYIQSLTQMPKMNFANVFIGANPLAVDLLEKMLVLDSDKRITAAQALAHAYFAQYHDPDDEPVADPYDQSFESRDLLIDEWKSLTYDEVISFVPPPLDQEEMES

O=C(NCCc1cc(Br)c(O)c(Br)c1)Nc1ccc(F)cc1 [4l, 1-(3,5-dibromo-4-hydroxyphenethyl)-3-(4-fluorophenyl)urea]
lipid droplet accumulation [1]: significantly inhibited this lipid accumulation
MTT, normal cells, value relative to control (=100), single replicate ([2]; 25 (μM), 24 h): 88.6 and 95.3 and 97.6 and 88.2
MTT, normal cells, value relative to control (=100), single replicate ([2]; 25 (μM), 48 h): 90.6 and 83.5 and 89.7 and 76.4
anti-proliferative effect on BEAS-2B cells ([2]; 25 to 100 μM, 24 h): no significant anti-proliferative effects
MTT, normal cells, value relative to control (=100), single replicate ([2]; 50 (μM), 24 h): 80.6 and 83.5 and 79.7 and 76.4
MTT, normal cells, value relative to control (=100), single replicate ([2]; 50 (μM), 48 h): 79.8 and 82.9 and 80.5 and 70.5
MTT, normal cells, value relative to control (=100), single replicate ([2]; 75 (μM), 24 h): 79.4 and 80.4 and 76.3 and 78.9
MTT, normal cells, value relative to control (=100), single replicate ([2]; 75 (μM), 48 h): 75.2 and 77.7 and 73.1 and 76.4
MTT, normal cells, value relative to control (=100), single replicate ([2]; 100 (μM), 24 h): 80.2 and 71.5 and 74.6 and 73.5
MTT, normal cells, value relative to control (=100), single replicate ([2]; 100 (μM), 48 h): 77.3 and 80.6 and 71 and 69.3
cytotoxicity in normal lung cells ([2]; doses ≤ 100 μM): negligible cytotoxicity; also recorded: minimal cytotoxicity
cellular proliferation efficiency of BEAS-2B cells ([2]; prolonged treatment, 48 h): remained comparable to untreated controls
IC50 [3]: 9.7 ± 1.4 nM
TM7SF2 protein expression level [4]: significantly reduced
colony formation [5]: statistically significant inhibition
relative wound healing area ([6]; 25 μM): 25.32%
relative wound healing area ([6]; 50 μM): 27.45%
relative wound healing area ([6]; 75 μM): 15.45%
relative wound healing area, mean of replicates [6, 9]: 15.4595
relative wound healing area, single replicate [6, 9]: 9.798 and 22.5542 and 10.9511 and 18.5341
relative wound healing area, mean of replicates [6, 10]: 25.3251
relative wound healing area, single replicate [6, 10]: 23.8842 and 10.9955 and 36.4639 and 29.9568
relative wound healing area, mean of replicates [6, 11]: 27.4562
relative wound healing area, single replicate [6, 11]: 33.9434 and 27.2189 and 28.6416 and 20.021
intracellular cholesterol levels [7]: no significant effect
total apoptosis ([8]; 25 μM): 9.1%
total apoptosis ([8]; 50 μM): 13.13%
total apoptosis ([8]; 75 μM): 19.53%
